Entries after “also recorded” stand apart in the source; their conditions may differ. Like-named read-outs stand apart in the source and are kept apart here.
How the values were obtained:
rEhAPSK = rEhAPSK (Entamoeba histolytica, UniProt C4LUW9); assay: 96-well plate-based in vitro APSK activity assay (coupling assay, NADH decrease); type: biochemical; conditions: for Inhibition of rEhAPSK activity: 10 μM compound, 1% DMSO
Procedure: (§1) A coupling assay to measure APSK activity was performed as described except a 96-well plate was used. Briefly, each well contained 100 μL reaction mixture, which consisted of 90 μL coupling solution and 10 μL of either compound solution (see below) or 10% DMSO. […] The coupling solution was 100 mM Tris/HCl (pH 8.0), 1 mM MgCl2, 1 mM KCl, 5 mM Mg2ATP, 1 mM NADH, 1 mM PEP, 1 U NP1, 3.5 U PK, 5.0 U LDH, and APSK (≤3 μL). […] As controls, in place of purified APSK solution (rEhAPSK or rHsAPSK), 3 μL of a blank [50 mM Tris/HCl buffer (pH 8.0)], a solvent (elution buffer), a mock (rEhSF2), or denatured APSK suspensions obtained by heat-treatment, were added to the coupling solution. The activity of each sample was calculated after removing the baseline value of the blank control.
(§2) For the inhibition assay, 2 μL of each stock solution, which were distributed in a 96-well plate, were transferred to a new plate to make a replicate. After adding 18 μL deionized water to each well and mixing, 10 μL of each diluted solution (100 μM compound solution) was again transferred into a new 96-well plate to make a replicate. Then 90 μL of the coupling solution prepared above was dispensed into each well containing the previously added 10 μL of 100 μM compound solution. As a solvent control, 10% DMSO solution (vol/vol-deionized water) was used in place of compound solution. The final concentrations of each compound and DMSO in a well were 10 μM and 1% (vol/vol), respectively. The assays were performed independently three times, and data are shown as the mean with SD.
One millimolar stock solutions used were either thawed in a replicate (96-well plate) prepared in [18] […] Subsequently, 3.4 μL of the 1 mM and each diluted stock solution were dispensed into wells of a 96-well culture plate, containing 30.6 μL deionized water and mixed well by pipetting. Ten microliters of all resulting solutions were then dispensed into wells of a 96-well plate to make triplicates and then used as described for the above inhibition assay. 10% DMSO solution was used as an inhibitor-free control. Note that the final DMSO concentration in any well was 1% (vol/vol).
(§3) In all assays, prepared mixtures in a plate were mixed on a vibrating table equipped with either an EnVision or ARVO plate reader (PerkinElmer) before starting the reaction.

[1] = test system: Human foreskin fibroblast (HFF) cells; assay: WST-1-based cytotoxicity assay
Procedure: (§4) Human foreskin fibroblast (HFF) cells (purchased from ATCC) were routinely maintained in DMEM supplemented with 10% fetal bovine serum, 100 units/ml penicillin, […] and 1% GlutaMAX™-I (Thermo Fisher Scientific, Waltham, MA). A WST-1-based cytotoxicity assay was performed as previously described. In detail, HFF cells were plated at 1.0×10^4 cells/100 μL medium in each well of a 96-well culture plate, and incubated overnight at 37°C in a 5% CO2 atmosphere to allow cells to adhere to the wells. […] Numbers of viable cells were then assessed using the Premix WST-1 Cell Proliferation Assay System (Takara). […] DMSO was added at 1% as a negative control whereas ionomycin was added at 30 μM as a positive control. As a blank, the above culture medium was used in place of the solutions added.

[2] = test system: E. histolytica trophozoite; assay: E. histolytica trophozoite proliferation assay (flow cytometry); type: cell-based; conditions: Entamoeba histolytica, read-out: Trophozoite proliferation IC50
Procedure: (§5) E. histolytica trophozoite proliferation and E. invadens cyst formation assays were performed essentially as described in [18] except that in addition to 0–72 and 48–72 h cyst formation assays, 0–96 and 0–120 h, and 48–96 and 48–120 h assays were also performed.

[3] = test system: E. invadens cyst formation; design: method as in PMID 30087858; conditions: 10 μM; ref [18]; cited from earlier work
[4] = target: T1, rHsAPSK (recombinant APSK domain of HsPAPSS1) (Homo sapiens, UniProt O43252); assay: 96-well plate-based in vitro APSK activity assay (coupling assay, NADH decrease); type: biochemical; conditions: 10 μM compound, 1% DMSO
T1 construct: APSK domains of HsPAPSS1 (Ala^25—Pro^227) and -2 (Ser^15—Pro^217); His tag (pCold-I vector); made in house; host or cells: E. coli BL21(DE3)
T1 sequence (O43252 25-227): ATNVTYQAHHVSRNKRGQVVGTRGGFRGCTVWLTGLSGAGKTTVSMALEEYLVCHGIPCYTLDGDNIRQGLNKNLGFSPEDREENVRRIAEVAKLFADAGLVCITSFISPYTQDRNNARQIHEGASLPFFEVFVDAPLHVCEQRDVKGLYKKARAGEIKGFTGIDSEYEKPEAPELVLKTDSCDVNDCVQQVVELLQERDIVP
Procedure: as §1, §2, §3

[5] = test system: E. histolytica trophozoites; assay: Morphological analysis by phase contrast microscopy; type: cell-based, Entamoeba histolytica; conditions: 6 h treatment
Text: Cell morphology was then observed by phase contrast microscopy using a Primovert microscope (Carl Zeiss, Germany) with a COMS camera (E3CMOS12000KPA, ToupTek, China). […] Cell images were captured using ToupView software (ToupTek).

[6] = test system: sulfolipids synthesized in E. histolytica trophozoites; assay: Metabolic labeling by [35S]-labeled sulfate, sulfolipid synthesis; type: cell-based, Entamoeba histolytica; conditions: 6 h treatment; A-D-11, A-H-11 6.25-100 μM, E-H-05 0.5-8 μM
Procedure: Metabolic labeling of E. histolytica trophozoites by [^35S]-labeled sulfate was performed essentially as described previously with slight modification. […] Each 10 mM stock solution (in DMSO) of the three commercially sourced compounds was serially diluted by 2-fold decrements with DMSO. The resulting diluted solutions were then added to 0.75 ml cell suspension in BI-S-33 medium at 1/100 (vol/vol). […] Note that DMSO was used as a solvent control at 1%, which was the DMSO concentration in all samples analyzed. [^35S]-labeled sulfate (45 μCi) was added 4 h after the start of treatments and labeled cells were harvested at 6 h. […] Each spot on the TLC plates was quantified using a Fuji imaging analyzer and Multi Gauge 2.2 software (FLA-7000; Fujifilm, Japan). The total cell protein was estimated using a Pierce BCA protein assay kit (Thermo Scientific, Rockford, IL, USA).

[7] = test system: E. invadens cyst formation; assay: E. invadens cyst formation (encystation) assay (flow cytometry); type: cell-based, Entamoeba invadens; conditions: for IC50: Entamoeba invadens, read-out: Cyst formation IC50; for Number of cysts formed at 72 h: compound added at 48 h post-induction (48–72 h)
Procedure: as §5

[8] = WST-1-based cytotoxicity assay; conditions: human
Procedure: as §4

[9] = test system: E. histolytica trophozoite; design: method as in PMID 30087858; conditions: 10 μM; ref [18]; cited from earlier work
[10] = read-out: APSK activity IC50, rEhAPSK, average ± SD, more than three independent experiments
[11] = rEhAPSK, average ± SD, more than three independent experiments, read-out: APSK activity IC50

Sequence of rEhAPSK (C4LUW9 entry or part of it): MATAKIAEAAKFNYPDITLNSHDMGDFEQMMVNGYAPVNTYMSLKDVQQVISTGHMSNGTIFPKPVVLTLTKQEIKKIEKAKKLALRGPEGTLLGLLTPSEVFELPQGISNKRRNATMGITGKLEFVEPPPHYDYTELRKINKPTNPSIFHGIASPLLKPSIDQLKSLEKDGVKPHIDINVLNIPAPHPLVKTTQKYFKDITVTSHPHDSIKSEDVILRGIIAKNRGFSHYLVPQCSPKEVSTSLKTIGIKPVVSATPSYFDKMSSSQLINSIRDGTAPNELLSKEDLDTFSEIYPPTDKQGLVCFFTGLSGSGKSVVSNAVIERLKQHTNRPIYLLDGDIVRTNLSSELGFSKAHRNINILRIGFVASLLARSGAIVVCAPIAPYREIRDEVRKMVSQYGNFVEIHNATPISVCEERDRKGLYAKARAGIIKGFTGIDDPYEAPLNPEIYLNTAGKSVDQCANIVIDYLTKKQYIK

Inhibition of rEhAPSK activity (rEhAPSK)	IC50 (rEhAPSK; [11])	SMILES	Number of viable HFF cells relative to 1% DMSO control (set as 100%) ([1]; 10 μM, 48 h)	other results
reproducibly inhibited rEhAPSK activity	> 10 µM	O=C(Nc1nnc(S)s1)c1cc(Br)ccc1Cl [E-G-10]	did not affect numbers of viable cells	–
reproducibly inhibited rEhAPSK activity	0.47 ± 0.0499 µM	N=C(N)Nc1ccc(-c2ccc(-c3ccc(NC(=N)N)c(Cl)c3)o2)cc1Cl [D-E-10]	did not affect numbers of viable cells	–
reproducibly inhibited rEhAPSK activity	6.57 ± 1.25 µM	COc1ccc(Cl)cc1NC(=O)CN(C)C(=O)c1cnn(-c2ccccc2)n1 [B-C-08]	did not affect numbers of viable cells	–
reproducibly inhibited rEhAPSK activity	7.67 ± 1.25 µM	Cc1cc(C)cc(COc2ccc3c(C)c(CCC(=O)O)c(=O)oc3c2C)c1 [A-F-07]	did not affect numbers of viable cells	–
reproducibly inhibited rEhAPSK activity	6.75 ± 1.35 µM	O=C(Nc1nc(-c2ccccn2)cs1)c1cncn1-c1ccccc1 [A-H-11, 3-phenyl-N-[4-(2-pyridyl)thiazol-2-yl]-imidazole-4-carboxamide]	did not affect numbers of viable cells; also recorded: did not influence numbers of viable HFF cells	IC50 ([2]; average ± SD, three independent experiments): 4 ± 1.05 µM; Effect on cyst formation [3]: negative effects; Inhibition of rHsAPSK activity [4]: none showed any inhibitory activity against HsAPSK; Concentration range that produced trophozoite morphology similar to DMSO control [5]: 6.25–100 μM; Amount of sulfolipids synthesized [6]: dose-dependently reduced the amount of sulfolipids synthesized; IC50 ([7]; 0–72 h, average ± SD, three independent experiments): 2.35 ± 0.132 µM; Number of cysts formed at 72 h [7]: neither A-D-11 nor A-H-11 affected the number of cysts formed at 72 h; IC50 at 48 h ([8]; human foreskin fibroblast (HFF) cells): > 100 µM; Number of viable HFF cells relative to DMSO control ([1]; 100 μM, 48 h): did not influence numbers of viable HFF cells; Effect on trophozoite proliferation [9]: negative effects
reproducibly inhibited rEhAPSK activity	2.03 ± 0.205 µM	N=C(N)Nc1ccc(-c2ccc(-c3ccc(NC(=N)N)cc3Cl)o2)c(Cl)c1 [C-F-03]	did not affect numbers of viable cells	–

The remaining lines, values behind:

SMILES	Inhibition of rEhAPSK activity (rEhAPSK)	IC50 (rEhAPSK; [11])	Number of viable HFF cells relative to 1% DMSO control (set as 100%) ([1]; 10 μM, 48 h)	other results
Cc1cc(C2=NOC(c3cc(Cl)c(F)c(Cl)c3)(C(F)(F)F)C2)ccc1C(=O)NCc1ccc2c(c1)C(C)(C)OB2O (centres unmarked) [B-B-05]	reproducibly inhibited rEhAPSK activity	–	–	IC50 (rEhAPSK): 5.73 ± 1.36 µM; IC50 (rEhAPSK; [10]): < 10 µM; Number of viable HFF cells relative to 1% DMSO control (set as 100%) ([1]; 10 µM): did not affect numbers of viable cells
Cn1c(=O)c2c(S(C)(=O)=O)snc2n(C)c1=O [C-C-06]	reproducibly inhibited rEhAPSK activity	8.67 ± 2.62 µM	–	–
O=C(COc1cccc(F)c1)Nc1nc(-c2ccccn2)cs1 [A-D-11, 2-(3-fluorophenoxy)-N-[4-(2-pyridyl)thiazol-2-yl]-acetamide]	reproducibly inhibited rEhAPSK activity	–	–	IC50 [2]: 7.5 ± 2.29 µM; IC50 (rEhAPSK): 6.3 ± 1.53 µM; IC50 (rEhAPSK; [10]): < 10 µM; Effect on cyst formation [3]: negative effects; Inhibition of rHsAPSK activity [4]: none showed any inhibitory activity against HsAPSK; Concentration range that produced trophozoite morphology similar to DMSO control [5]: 6.25–100 μM; Amount of sulfolipids synthesized [6]: dose-dependently reduced the amount of sulfolipids synthesized; IC50 [7]: 2.27 ± 0.252 µM; Number of cysts formed at 72 h [7]: neither A-D-11 nor A-H-11 affected the number of cysts formed at 72 h; IC50 at 48 h [8]: > 100 µM
C[C@H](CCC(=O)O)C[C@H](C)C[C@H](C)C(=O)/C=C(\O)[C@H](C)C[C@H](C)C/C=C/[C@@H](C)[C@@H](O)[C@@H](C)[C@@H](O)C[C@@H]1CC[C@@](C)([C@H]2CC[C@@](C)([C@@H](C)O)O2)O1 [ionomycin, reference compound]	–	–	–	HFF cell viability ([1]; 30 μM, positive control): almost completely abolished cell viability
COc1ccc(C2=NN(C3CCCCCC3)C(=O)C3CC=CCC23)cc1OCCCCOc1ccc(-c2nnn[nH]2)cc1 (centres unmarked) [B-C-02]	reproducibly inhibited rEhAPSK activity	–	–	Number of viable HFF cells relative to 1% DMSO control (set as 100%) ([1]; 10 µM): ~20 − ~60
Cc1ccc(C(=O)Nc2ccc(S(=O)(=O)O)c3cc(S(=O)(=O)O)cc(S(=O)(=O)O)c23)cc1NC(=O)c1cccc(NC(=O)Nc2cccc(C(=O)Nc3cc(C(=O)Nc4ccc(S(=O)(=O)O)c5cc(S(=O)(=O)O)cc(S(=O)(=O)O)c45)ccc3C)c2)c1 [B-D-03, suramin, reference compound]	reproducibly inhibited rEhAPSK activity	0.52 ± 0.102 µM	–	Number of viable HFF cells relative to 1% DMSO control (set as 100%) ([1]; 10 µM): did not affect numbers of viable cells
C[C@]1(COc2ccc(N3CCC(Oc4ccc(OC(F)(F)F)cc4)CC3)cc2)Cn2cc([N+](=O)[O-])nc2O1 [C-F-06, delamanid, reference compound]	reproducibly inhibited rEhAPSK activity	> 10 µM	did not affect numbers of viable cells	–
COc1ccc(C2=NN(C3CCCCCC3)C(=O)C2(C)C)cc1OCCCCOc1ccc(-c2nnn[nH]2)cc1 [A-C-05]	reproducibly inhibited rEhAPSK activity	–	–	IC50 (rEhAPSK): 4.73 ± 1.16 µM; IC50 (rEhAPSK; [10]): < 10 µM
COc1cccc(-n2nnnc2S(=O)(=O)Cc2ccccc2)c1 [A-F-04]	reproducibly inhibited rEhAPSK activity	> 10 µM	–	–

— article PMC6715247 (PLoS Neglected Tropical Diseases, 2019)
